# Experimental data published in PubChem BioAssay (NCI).
#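 Interpolation was linear, between the two tested concentrations surrounding the appropriate level; five concentrations were tested over 48 hours in 96-well plates. Here, GI50 denotes the concentration required for 50% inhibition of growth. TGI marks complete inhibition of growth.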
# Columns and labels:
# Test in all cases: NCI tumour cell line growth inhibition, 48 h
# [1] = tested on: 786-0 renal
# [2] = tested on: A498 renal
# [3] = tested on: A549 NSCLC
# [4] = tested on: ACHN renal
# [5] = tested on: CAKI-1 renal
# [6] = tested on: CCRF-CEM leukemia
# [7] = tested on: COLO 205 colon
# [8] = tested on: DMS 273 small cell lung
# [9] = tested on: EKVX NSCLC
# [10] = tested on: HCT-116 colon
# [11] = tested on: HCT-15 colon
# [12] = tested on: HL-60(TB) leukemia
# [13] = tested on: HOP-18 NSCLC
# [14] = tested on: HOP-92 NSCLC
# [15] = tested on: HT29 colon
# [16] = tested on: IGROV1 ovarian
# [17] = tested on: K-562 leukemia
# [18] = tested on: KM20L2 colon
# [19] = tested on: LOX IMVI melanoma
# [20] = tested on: M14 melanoma
# [21] = tested on: NCI-H460 lung
# [22] = tested on: OVCAR-3 ovarian
# [23] = tested on: OVCAR-4 ovarian
# [24] = tested on: OVCAR-8 ovarian
# [25] = tested on: RPMI-8226 leukemia
# [26] = tested on: RXF 393 renal
# [27] = tested on: SF-295 CNS
# [28] = tested on: SF-539 CNS
# [29] = tested on: SK-MEL-28 melanoma
# [30] = tested on: SK-MEL-5 melanoma
# [31] = tested on: SN12C renal
# [32] = tested on: SNB-19 CNS
# [33] = tested on: SNB-75 CNS
# [34] = tested on: SNB-78 CNS
# [35] = tested on: SW-620 colon
# [36] = tested on: TK-10 renal
# [37] = tested on: U251 CNS
# [38] = tested on: UACC-257 melanoma
# [39] = tested on: UACC-62 melanoma
# [40] = tested on: KM12 colon
# [41] = tested on: LXFL 529 NSCLC
# [42] = tested on: M19-MEL melanoma
# [43] = tested on: MOLT-4 leukemia
# [44] = tested on: NCI-H226 lung
# [45] = tested on: NCI-H522 lung
# [46] = tested on: RXF-631 renal
# [47] = tested on: SF-268 CNS
# [48] = tested on: SK-OV-3 ovarian
# [49] = tested on: SR leukemia
structure (smiles),measurement,setting,value
CC(C)CCCC(C)[C@H]1CCC2C3CC=C4C[C@@H](OC(=O)CC(CC(=O)[O-])C(=O)[O-])CC[C@]4(C)C3CC[C@@]21C.N.N.[Pt+4] (stereo not given in full),GI50,[1],> 100 µM
same,TGI,[1],> 100 µM
same,GI50,[2],> 100 µM
same,TGI,[2],> 100 µM
same,GI50,[3],> 100 µM
same,TGI,[3],> 100 µM
same,GI50,[4],47.6 µM
same,TGI,[4],> 100 µM
same,GI50,[5],> 100 µM
same,TGI,[5],> 100 µM
same,GI50,[6],> 100 µM
same,TGI,[6],> 100 µM
same,GI50,[7],> 100 µM
same,TGI,[7],> 100 µM
same,GI50,[8],> 100 µM
same,TGI,[8],> 100 µM
same,GI50,[9],> 100 µM
same,TGI,[9],> 100 µM
same,GI50,[10],> 100 µM
same,TGI,[10],> 100 µM
same,GI50,[11],> 100 µM
same,TGI,[11],> 100 µM
same,GI50,[12],> 100 µM
same,TGI,[12],> 100 µM
same,GI50,[13],> 100 µM
same,TGI,[13],> 100 µM
same,GI50,[14],> 100 µM
same,TGI,[14],> 100 µM
same,GI50,[15],> 100 µM
same,TGI,[15],> 100 µM
same,GI50,[16],> 100 µM
same,TGI,[16],> 100 µM
same,GI50,[17],> 100 µM
same,TGI,[17],> 100 µM
same,GI50,[18],> 100 µM
same,TGI,[18],> 100 µM
same,GI50,[19],> 100 µM
same,TGI,[19],> 100 µM
same,GI50,[20],> 100 µM
same,TGI,[20],> 100 µM
same,GI50,[21],> 100 µM
same,TGI,[21],> 100 µM
same,GI50,[22],> 100 µM
same,TGI,[22],> 100 µM
same,GI50,[23],> 100 µM
same,TGI,[23],> 100 µM
same,GI50,[24],> 100 µM
same,TGI,[24],> 100 µM
same,GI50,[25],> 100 µM
same,TGI,[25],> 100 µM
same,GI50,[26],47.1 µM
same,TGI,[26],> 100 µM
same,GI50,[27],> 100 µM
same,TGI,[27],> 100 µM
same,GI50,[28],> 100 µM
same,TGI,[28],> 100 µM
same,GI50,[29],> 100 µM
same,TGI,[29],> 100 µM
same,GI50,[30],> 100 µM
same,TGI,[30],> 100 µM
same,GI50,[31],> 100 µM
same,TGI,[31],> 100 µM
same,GI50,[32],> 100 µM
same,TGI,[32],> 100 µM
same,GI50,[33],> 100 µM
same,TGI,[33],> 100 µM
same,GI50,[34],> 100 µM
same,TGI,[34],> 100 µM
same,GI50,[35],> 100 µM
same,TGI,[35],> 100 µM
same,GI50,[36],> 100 µM
same,TGI,[36],> 100 µM
same,GI50,[37],> 100 µM
same,TGI,[37],> 100 µM
same,GI50,[38],> 100 µM
same,TGI,[38],> 100 µM
same,GI50,[39],> 100 µM
same,TGI,[39],> 100 µM
N#CCc1ccccc1/C(C#N)=C1/OC(=N)C(c2ccccc2CC#N)C1=O (stereo not given),TGI,[1],> 100 µM
same,TGI,[3],> 100 µM
same,TGI,[4],> 100 µM
same,TGI,[5],> 100 µM
same,TGI,[6],> 100 µM
same,TGI,[8],> 100 µM
same,TGI,[9],> 100 µM
same,TGI,[10],> 100 µM
same,TGI,[12],> 100 µM
same,TGI,[14],> 100 µM
same,TGI,[15],> 100 µM
same,TGI,[16],> 100 µM
same,TGI,[17],> 100 µM
same,TGI,[40],> 100 µM
same,TGI,[18],> 100 µM
same,TGI,[19],> 100 µM
same,TGI,[41],> 100 µM
same,TGI,[20],> 100 µM
same,TGI,[42],> 100 µM
same,TGI,[43],> 100 µM
same,TGI,[44],> 100 µM
same,TGI,[45],> 100 µM
same,TGI,[22],> 100 µM
same,TGI,[25],> 100 µM
same,TGI,[46],> 100 µM
same,TGI,[47],> 100 µM
same,TGI,[27],> 100 µM
same,TGI,[28],> 100 µM
same,TGI,[29],> 100 µM
same,TGI,[30],> 100 µM
same,TGI,[48],> 100 µM
same,TGI,[33],> 100 µM
same,TGI,[49],> 100 µM
same,TGI,[35],> 100 µM
same,TGI,[36],> 100 µM
same,TGI,[38],> 100 µM
same,TGI,[39],> 100 µM
